Experimental data as given in patent US11278629B2, “Methods for improving anti-CD37 immunoconjugate therapy” (Debiopharm International, S.A., priority 2016, dated 2022).

Experiments:
lymphoma cell lines [1] = assay: Cell proliferation, MTT assay, fifty-four lymphoma cell lines; assay type: cell-based; conditions: 72 hours exposure, read-out: median IC50
Excerpt: (§1) Fifty-four lymphoma cell lines (ALCL, anaplastic large cell lines (n=5); CLL, chronic lymphocytic leukemia (n=2); ABC-DLBCL, activated B cell like diffuse large B cell (n=7); GCB-DLBCL, germinal center B cell like diffuse large B cell (n=20); MCL, mantle cell lymphoma (n=10); MZL, marginal zone lymphoma (n=6); PMBCL, Primary Mediastinal Large B-Cell Lymphoma (n=1); SMZL, splenic marginal zone lymphoma (n=3)) were exposed to increasing doses of IMGN529 or to the unconjugated cytotoxic payload DM1 for 72 hours. Cell proliferation was measured using the MTT assay. Apoptosis induction was defined by at least a 1.5-fold increase in caspase 3/7 signal activation with respect to controls using the Promega ApoTox-Glo Triplex Assay. CD37 surface expression was assessed by cytofluorimetry. Gene expression profiling (GEP) was done with the Illumina HumanHT-12 Expression BeadChips on untreated cell lines followed by GSEA (NES>|2|, P<0.05, FDR<0.25) and limma t-test (FC>|1.2|; P<0.05; top 200 up and top 200 down).

lymphoma cell lines [2] = assay: Apoptosis induction, caspase 3/7 activation (Promega ApoTox-Glo Triplex Assay); assay type: cell-based; conditions: 33/54 cell lines; apoptosis = at least 1.5-fold increase in caspase 3/7 signal vs controls
Excerpt: as §1

| Compound | IC50 (lymphoma cell lines [1]) | lymphoma cell lines in which apoptosis was induced (lymphoma cell lines [2]) |
| --- | --- | --- |
| COc1cc2cc(c1Cl)N(C)C(=O)C[C@H](OC(=O)[C@H](C)N(C)C(=O)CCS)[C@]1(C)O[C@H]1[C@H](C)C1C[C@@](O)(NC(=O)O1)[C@H](OC)/C=C/C=C(\C)C2 [DM1, N^2′-deacetyl-N^2′-(3-mercapto-1-oxopropyl)-maytansine] | 30 pM |  |
| IMGN529: immunoconjugate containing the huCD37-3 antibody, the SMCC linker, and the DM1 maytansinoid |  | 61% |
